Reference: patent US4892963A, “N-phenyl amide compounds” (Lilly Industries Limited, priority 1986, dated 1990)

What was measured:
[1] = system: cyclooxygenase; assay: cyclooxygenase inhibition test of Harvey and Osborn
From the text: Other members of the series inhibit 5-lipoxygenase product formation as measured in this test, and are thus indicated for the therapeutic treatment of diseases in which leukotrienes are implicated. These include immediate hypersensitivity diseases, allergic reactions of the pulmonary system, for example, in lung disorders such as extrinsic asthma and industrial asthmas and in other inflammatory disorders associated with acute or chronic infectious diseases as allergic skin diseases, ectopic and atopic eczemas, psoriasis, contact hypersensitivity and angioneurotic oedema, bronchitis, cystic fibrosis and rheumatic fever. Furthermore, owing to their inhibition of leukotriene formation, the compounds have potential activity against a wide range of inflammatory diseases, and are also indicated for use in cancer treatment.

[2] = system: rat spleen cells; assay: concanavalin A response of rat spleen cells (tritiated thymidine uptake); type: cell-based; settings: dosage level of 10 micromolar, concanavalin A 3 μg/ml, 2×10^5 cells per well
Protocol: The concanavalin A response of rat spleen cells was used as a primary in vitro assay to determine the activity of the compounds of the invention. Many methods for the determination of concanavalin A response are described in the literature. The method employed was similar to that described by Lacombe P. et al, FEBS 3048 191, 227-230. This method was altered insofar as Hepes was excluded, 2×10^5 cells were used per culture well, and concanavalin A employed at 3 μg/ml. 2-Mercaptoethanol was a requirement (2×10M^-5 ) and 0.1 μCi of tritiated thymidine was added 4 hours before cell harvesting.

CC(O)=C(C#N)C(=O)Nc1ccc(C(C)(C)C)cc1 [Example 1, 2-Cyano-N-[4-(1,1-dimethylethyl)phenyl]-3-hydroxybut-2-enamide]
cyclooxygenase inhibiting properties [1]: little or no cyclooxygenase inhibiting properties
inhibition at 10 µM [2]: > 50%

CC(O)=C(C#N)C(=O)N(C)c1ccc(C(C)(C)C)cc1 [Example 2, 2-Cyano-N-[4-(1,1-dimethylethyl)phenyl]-3-hydroxy-N-methylbut-2-enamide]
cyclooxygenase inhibiting properties [1]: little or no cyclooxygenase inhibiting properties

Cc1oncc1C(=O)Nc1ccc(C(C)(C)C)cc1 [Example 3, N-[4-(1,1-Dimethylethyl)phenyl]-5-methylisoxazol-4-yl-carboxamide]
inhibition at 10 µM [2]: > 50%

CCC(C)(C)c1ccc(NC(=O)C(C#N)=C(C)O)cc1 [Example 4, 2-Cyano-N-[4-(1,1-dimethylpropyl)phenyl]-3-hydroxybut-2-enamide]
inhibition at 10 µM [2]: > 50%
